From patent publication US8367659B2, “Oxazinyl isoflavonoid compounds, medicaments and use” (Marshall Edwards, Inc., priority 2007, dated 2013)

Legend:
[1] = system: TXB2 synthesis in RAW 264.7 murine macrophages; assay: LPS-induced TXB2 synthesis in RAW 264.7 murine macrophages; format: cell-based, mouse; conditions: 10 μM; relative to vehicle alone; FIG. 4
Protocol: (§1) The mouse macrophage cell line RAW 264.7 was cultured in DMEM supplemented with foetal calf serum (FCS), […] glutamine and 50 U/ml penicillin/streptomycin. Cells were treated with either test compound (in 0.025% DMSO) or vehicle alone, and added one hour before 50 ng/ml LPS. After incubation for 24 h, culture media was collected for PGE2 or TXB2 measurement by ELISA (Cayman Chemical), and TNFα measurement using an ELISA (Becton Dickinson). Test compounds were examined a concentration of 10 μM. […] Consequently, to assess the effect of test compounds on various analytes, cell viability was taken into consideration with the use of the formula: Actual effect of test compound=measured effect−(effect on cell viability×measured effect)

[2] = target: T1, GAL4-PPARγ fusion protein (Homo sapiens, UniProt P37231); assay: PPARγ activity in transfected HEK293 cells (beta-lactamase reporter); format: cell-based; conditions: FIG. 13: 1 μM
T1 construct: host or cells: HEK293 (human embryonic kidney), stably transfected
T1 sequence (P37231 238-503 limits assumed): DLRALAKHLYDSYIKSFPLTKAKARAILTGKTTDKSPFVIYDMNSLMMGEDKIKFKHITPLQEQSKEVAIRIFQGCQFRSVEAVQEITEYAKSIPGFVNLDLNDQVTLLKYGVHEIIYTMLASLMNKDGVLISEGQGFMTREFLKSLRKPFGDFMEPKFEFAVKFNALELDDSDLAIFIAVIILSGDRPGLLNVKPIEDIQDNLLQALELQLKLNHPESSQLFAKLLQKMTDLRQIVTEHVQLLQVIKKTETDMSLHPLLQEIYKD
T1 sequence (P04386 1-147 partner limits assumed): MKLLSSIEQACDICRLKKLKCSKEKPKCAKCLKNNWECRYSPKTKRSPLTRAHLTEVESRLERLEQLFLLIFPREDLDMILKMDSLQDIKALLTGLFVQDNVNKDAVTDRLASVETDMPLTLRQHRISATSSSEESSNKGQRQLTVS
Method in brief: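 HEK293 cells stably expressing GAL4-DBD/PPARγ-LBD fusion with beta-lactamase reporter, treated with compound at 1, 5 and 10 μM for 16-18 h. Beta-lactamase read via FRET substrate (2 h, room temperature), ex 409 nm, em 460/530 nm; background-subtracted emission ratio.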

[3] = system: PGE2 synthesis in RAW 264.7 murine macrophages; assay: LPS-induced PGE2 synthesis in RAW 264.7 murine macrophages; format: cell-based, mouse; conditions: 10 μM; relative to vehicle alone; FIG. 3
Protocol: as §1

[4] = system: TNFα synthesis in human peripheral blood monocytes; assay: Synthesis of TNFα by human monocytes stimulated with LPS; format: cell-based; conditions: FIGS. 1a, 1b
Protocol: Human peripheral blood monocytes were isolated from buffy coats by lyrnpboprep gradient separation of mononuclear cells followed by counter-current centrifugal elutriation (Demasi et al. 2000). Test compounds were dissolved in DMSO and added to fresh monocytes to achieve concentrations of 0, 10 and 100 μM. After 30 min, LPS was added to achieve a final concentration of 200 ng/mL. After 1 h, supernatants were removed and TNFα measured by ELISA previously described (Demasi et al. 2003). ANOVA followed by Newman-Keuls multiple comparisons test was used to examine differences between doses and the control values.

[5] = system: caspase-3/7 activity in A7r5 rat aortic smooth muscle cells; assay: Caspase-3/7 activity (apoptosis) in A7r5 rat aortic smooth muscle cells; format: cell-based; conditions: 10, 50 and 100 μM; FIG. 14
Text: Activation of the caspase cascade is an integral event in the apoptotic pathway. Caspase-3 is one of the important “executioner” caspase enzymes, triggering the cleavage of numerous proteins that lead to the ordered breakdown of cells. The detection of caspase-3 activation is frequently used as a positive marker for apoptosis. A homogeneous luminescent caspase-3/7 assay, the Caspase-Glo™ 3/7 Assay (Promega Corp.) was used to provide an extremely sensitive measure of caspase activation. VSMC were incubated with different concentrations (0 [vehicle alone], 10, 50 and 100 μM) of test compounds. The assay used a proluminescent substrate containing the DEVD sequence recognized by caspase-3 and -7. The caspase-Glo™ 3/7 Reagent produced luminescence that is directly proportional to the amount of caspase-3/7 activity. The luminescence is linear over four orders of magnitude of caspase concentration and over a broad range of cell densities.

VCAM = assay: TNFα-induced VCAM expression in human arterial endothelial cells (ELISA); format: cell-based; conditions: HAEC; 10 μM found most appropriate for comparing
Protocol: Inhibition of TNFα-stimulated endothelial cell activation by compounds was assessed by measuring surface expression of cell adhesion molecules with an ELISA method. Human arterial endothelial cells (HAEC) in growth medium (Cell Applications Inc.) were seeded into 96-well plates at a density of 10,000 cells per well. Plates were incubated overnight at 37° C. in a humidified incubator to allow for cells to become confluent. On the morning of the experiment, TNFα (10 μl, 2 ng/ml) was added to each well, which contained 100 μl of medium. Compounds were diluted in DMSO-containing medium (2.5% DMSO) to give a compound concentration of 100 and 300 μM. Compounds were added to wells so that final concentrations were 10 and 30 μM. DMSO-containing medium alone was added to zero concentration control wells. All samples were measured in quadruplicate (4 wells per treatment).
After incubation with compound, medium was removed and cells were probed with either non-specific IgG or specific mouse antibodies against E-selectin, ICAM or VCAM (BD Biosciences—0.1 μg in 100 μL buffered saline with 10% heat-inactivated human serum). Adhesion molecule expression was detected by addition of sheep anti-mouse antibody/horseradish peroxidase conjugate. […] Optical density was measured at 405 nm with an ELISA reader (Titertek Multiscan, Flow Laboratories). […]

| PPARγ activation, increase in beta-lactamase activity over media only control [2] | SMILES | mean change of LPS-induced TXB2 synthesis [1] | mean change of LPS-induced PGE2 synthesis [3] | effect on synthesis of TNFα [4] | induction of caspase-3/7 activity, apoptosis [5] | effect on TNFα-induced VCAM expression (VCAM) |
| --- | --- | --- | --- | --- | --- | --- |
| PPARγ agonist activity | CC(c1ccccc1)N1COc2cc3c(cc2C1)C=C(c1ccc(O)cc1)CO3 (stereo not drawn) [Compound 2, 4-(3-(1-Phenylethyl)-2,3,4,8-tetrahydrochromeno[6,7-e][1,3]oxazin-7-yl)phenol] | greatest inhibition | greatest inhibition | reduce the synthesis of TNFα |  |  |
|  | Oc1cccc(C2=Cc3ccc(O)cc3OC2)c1 [Compound 37-DHE, 3′,7-dihydroxy-isoflav-3-ene, reference compound] |  |  |  | no activity | less pronounced |
